Experiments:
[1] = system: HvGR (Host Versus Graft Reaction) in Rats; test: Inhibitory activities against HvGR in rats, combination with immunosuppressants (Test Example 3); format: in vivo, Lewis rats; conditions: oral 5 ml/kg once daily for 4 successive days; suspensions: cyclosporin A 0.08 mg/5 ml, tacrolimus 0.08 mg/5 ml, Compound A 0.008 mg/5 ml; popliteal lymph node weight
Protocol: Determination of Inhibitory Activities of Compounds against HvGR (Host Versus Graft Reaction) in Rats (1) Two strains of rats (Lewis rats (male, 6 weeks of age, Charles River Japan Inc.) and […] (male, 7 weeks of age, Japan SLC Inc.) were used. Five rats/group were used. […] Spleen cells were isolated from the spleens of […] or Lewis rats and floated in RPMI1640 medium (Life Technologies Inc.) at a concentration of 1×10^8 cells/ml. 0.1 ml of the medium containing the free-floating spleen cells of […] or 0.1 ml of the medium containing the free-floating spleen cells of Lewis rats were intracutaneously injected into the bilateral foot-pads of hindlimbs of Lewis rats. (3) Administration of Compounds […] In both the “same strain group” (Lewis rats treated with spleen cells of Lewis rats but not with the compounds) and “control group” (Lewis rats treated with the spleen cells of […] but not with the compounds), 0.5% tragacanth solution was orally administered. […] The inhibitory activities of the compounds were calculated from the “HvGR-induced changes in the popliteal lymph node weights” of individual rats in drug-treated group versus the average “HvGR-induced changes in the popliteal lymph node weights” in the control group.

[2] = system: Host Versus Graft Reaction in Rats; test: Inhibitory activities against host versus graft reaction (HvGR) in rats (Test Example 1); format: in vivo; conditions: oral, once daily for 4 successive days; HvGR-induced change in popliteal lymph node weight; Lewis rats injected with WKAH/Hkm spleen cells
Protocol: Determination of Inhibitory Activities of Compounds against Host Versus Graft Reaction in Rats
(1) Two strains of rats [Lewis rats (male, 6 weeks of age, Charles River Japan Inc.) and WKAH/Hkm rats (male, 7 weeks of age, Japan SLC Inc.) were used. Five rats/group were used.
Spleen cells were isolated from the spleens of WKAH/Hkm and Lewis rats and floated in RPMI1640 medium (Life Technologies Inc.) at a concentration of 1×10^8 cells/ml. 0.1 ml of the medium containing the free-floating spleen cells of WKAH/Hkm rats or Lewis rats (1×10^7 of the spleen cells) was then intracutaneously injected into the bilateral foot-pads of hindlimbs of Lewis rats.
(3) Administration of the Compounds
Compounds were suspended in 0.5% tragacanth solution. The suspended compounds were orally administered to rats in the drug-treated group (Lewis rats injected with spleen cells of WKAH/Hkm rats and treated with the compound) at a volume of 5 ml/kg once daily for 4 successive days starting on the day of spleen cell injection. The tragacanth solution (0.5%) was orally administered, instead of the compound-suspended solution, to rats in the “same strain group” (Lewis rats injected with spleen cells of Lewis rats) and the control group (Lewis rats injected with spleen cells of WKAH/Hkm rats and not treated with the compound).
(4) Determination of Inhibitory Activities of Compounds against HvGR
Average weight of the popliteal lymph nodes of the same strain rats was subtracted from individual weights of the popliteal lymph nodes of individual rats (“HvGR-induced changes in weight of the popliteal lymph nodes”). The inhibitory activities of compounds were calculated from the “HvGR-induced changes in weights of the popliteal lymph nodes” of individual rats in the drug-treated group versus the average “HvGR-induced changes in weights of the popliteal lymph nodes” in the control group. The inhibitory activities of compounds were expressed as ID50 values (mg/kg) as calculated by least squares method based on the doses of compounds administered and inhibitory activities at these doses.

[3] = system: Adjuvant-Induced Arthritis; test: Inhibitory activities against adjuvant-induced arthritis (Test Example 2); format: in vivo, rats (usually Lewis rats); conditions: oral, once daily for 21 successive days; foot swelling volume one day after final administration
Protocol: Determination of Inhibitory Activities of Compounds against Adjuvant-Induced Arthritis
(1) Preparation of Adjuvant
Adjuvant was prepared by suspension of killed Mycobacterium butyricum in mineral oil at a concentration of 2 mg/ml, followed by application of ultrasonic waves.
(2) Preparation of Test Compound
Test compounds were suspended or dissolved in 0.5% tragacanth solution.
(3) Induction of Adjuvant Arthritis
0.05 ml of adjuvant solution prepared as described in (1) was intracutaneously injected into the right foot-pad of rats (usually Lewis rats). Five rats/group were usually used. Adjuvant was not injected in one group of rats (normal group).
(4) Administration of Compound
Compounds prepared as described in (2) were orally administered to rats at a volume of 5 ml/kg once daily for 21 successive days. 0.5% tragacanth solution was similarly administered to rats in one group injected adjuvant (control group) and a group not injected adjuvant.
(5) Calculation of Inhibitory Activities of Compounds against Adjuvant Arthritis
One day after the final drug administration, the foot volume of each rat was measured by an apparatus for determination of the volume. The average value in normal rats was subtracted from the individual values in the drug-treated and control groups. The difference was expressed as the swelling volume. Inhibitory rate of the compound was calculated from the ratio of the individual swelling volume of the rat treated with the compound to the average swelling volume in the control group.
Inhibitory activities of compounds were expressed as ID50 values (mg/kg) calculated by least squares method based on the doses of the compound and their inhibitory ratios.

[4] = system: Mice GvHD (Graft Versus Host Disease); test: Inhibitory activities against mice GvHD (Test Example 4); format: in vivo, BDF1 mice; conditions: oral 10 ml/kg once daily for 10 successive days; suspensions: cyclosporin A 0.1 mg/10 ml, tacrolimus 0.2 mg/10 ml, Compound B 0.01 mg/10 ml; spleen weight compensated for body weight
Protocol: Determination of Inhibitory Activities of Compounds against Mice GvHD (Graft Versus Host Disease) (1) Two strains of mice. [BDF1 mice (male, 6 weeks of age, Charles River Japan Inc.) and C57BL/6 mice (male, 7 weeks of age, Charles River Japan Inc.)] were used. Five mice/group (hosts) were used. (2) Induction of GvHD Spleen cells were isolated from the spleens of C57BL/6 mice or BDF1 mice and floated in RPMI1640 medium (Life Technologies Inc.) at a concentration of 2×10^7 cells/ml. 0.5 ml of the medium containing the free-floating spleen cells of C57BL/6 mice) was intravenously injected into the tail vein of BDF1 mice (GvHD induction group) and the same volume of the medium containing free-floating spleen cells of BDF1 mice was intravenously injected into the tail vein of BDF1 mice (the “same strain group”). (3) Administration of Compounds […] Body weight was determined and spleens were weighed, and “spleen weight compensated for the body weight following injection of GvHD” was calculated by dividing the spleen weight by the body weight. […] The inhibitory activities of compounds were calculated from the ratios of individual “spleen weight compensated for body weight following injection of GvHD” to the average “spleen weight compensated for body weight following injection of GvHD” in the control group.

[5] = system: Rejection Response against Skin Transplantation of Mice; test: Inhibitory activities against rejection response against skin transplantation of mice (Test Example 5); format: in vivo; conditions: oral 10 ml/kg once daily for 14 successive days from transplantation; suspensions: cyclosporin A 30 mg/10 ml, tacrolimus 3 mg/10 ml, Compound B 0.1 mg/10 ml; C57BL/6N skin on BALB/cAnN mice
Text: (1) Two strains of mice [C57BL/6N mice (female, 5 weeks of age, Charles River Japan Inc.) and BALB/cAnN mice (female, 5 weeks of age, Charles River Japan Inc.)] were used. Ten mice/group (transplanted individuals) were used.
C57BL/6N mice were sacrificed by cervical dislocation and their skins removed. The skins were cut to 8-mm diameter sizes by biopsy punch (MK706, 8 mm, Kai Industries Co., Ltd.). Next, 8 mm diameter sections of the back skins of BALB/cAnN mice anaesthetized with Avertin were removed by biopsy punch. The skin was cut along the edge of the damaged area by fine ophthalmic scissors. The previously cut skins of C57BL/6N mice were transplanted to the removed areas of the skin in BALB/cAnN mice. The transplanted areas were fixed with Aron Alpha (Sankyo Co., Ltd.). […]
On the 6th day after transplantation (the day of transplantation was defined as day 0), the Coban, SYLKYTEX, sterilized gauze, and Sofratulle were gently removed paying attention not to damage the skin by a pair of scissors. From the next day to 20 days after transplantation, it was determined whether rejection responses occurred in the transplanted skin. This determination was carried out blind, and the median day when the rejection response occurred was calculated.

| SMILES | HvGR Inhibitory Rate (%) [1] | HvGR ID50 values [2] | ID50 values [3] | GvHD Inhibitory Rate (%) [4] | Median Day of Rejection Response [5] |
| --- | --- | --- | --- | --- | --- |
| CC(N)(CO)CCc1ccc(C(=O)CCCCc2ccccc2)s1.O=C(O)/C=C\C(=O)O (stereo not shown) [Compound A, 2-amino-2-methyl-4-[5-(5-phenylpentanoyl]thiophen-2-yl]butan-1-ol maleate] | 16.0% | – | – | – | – |
| C[C@](N)(CO)CCc1ccc(C#CCCCC2CCCCC2)o1.O=C(O)C(=O)O [Example 2, (2R)-2-Amino-2-methyl-4-[5-(5-cyclohexylpent-1-ynyl)furan-2-yl]butan-1-ol oxalate] | – | 0.714 mg/kg | 0.0899 mg/kg | – | – |
| C[C@](N)(CO)CCc1ccc(C#CCCOC2CCCCC2)o1.O=C(O)C(=O)O [Example 3, (2R)-2-Amino-2-methyl-4-[5-(4-cyclohexyloxybut-1-ynyl)furan-2-yl]butan-1-ol oxalate] | – | 0.116 mg/kg | 0.0774 mg/kg | – | – |
| Cn1c(C#CCCCc2ccccc2)ccc1CC[C@@](C)(N)CO.O=C(O)C(=O)O [Example 9, (2R)-2-Amino-2-methyl-4-[1-methyl-5-(5-phenylpent-1-ynyl)pyrrol-2-yl]butan-1-ol oxalate] | – | 0.120 mg/kg | – | – | – |
| Cn1c(C#CCCOC2CCCCC2)ccc1CC[C@@](C)(N)CO.Cn1c(C#CCCOC2CCCCC2)ccc1CC[C@@](C)(N)CO.O=C(O)C(=O)O [Example 10, (2R)-2-Amino-2-methyl-4-[1-methyl-5-(4-cyclohexyloxybut-1-ynyl)pyrrol-2-yl]butan-1-ol ½-oxalate] | – | 0.276 mg/kg | – | – | – |
| C[C@](N)(CO)CCc1ccc(C#CCCCc2cccc(C(F)(F)F)c2)o1.O=C(O)C(=O)O [Example 15, (2R)-2-Amino-2-methyl-4-{5-[5-(3-trifluoromethylphenyl)pent-1-ynyl]furan-2-yl}butan-1-ol oxalate] | – | 0.304 mg/kg | – | – | – |
| C[C@](N)(CO)CCc1ccc(C#CCCCC2CCCCC2)o1.Cl [Example 19, (2R)-2-Amino-2-methyl-4-[5-(5-cyclohexylpent-1-ynyl)furan-2-yl]butan-1-ol hydrochloride] | – | 0.097 mg/kg | 0.108 mg/kg | – | – |
| C[C@](N)(CO)CCc1ccc(C#CCCOC2CCCCC2)o1.Cl [Example 20, (2R)-2-Amino-2-methyl-4-[5-(4-cyclohexyloxybut-1-ynyl)furan-2-yl]butan-1-ol hydrochloride] | – | 0.082 mg/kg | 0.102 mg/kg | – | – |
| Cl.Cn1c(CC[C@@](C)(N)CO)ccc1C(=O)CCCCc1ccccc1 [Example 33, (2R)-2-Amino-2-methyl-4-[1-methyl-5-(5-phenylpentanoyl)pyrrol-2-yl]butan-1-ol hydrochloride] | – | 0.013 mg/kg | 0.0941 mg/kg | −2.9% | 15.0 days |
| C=CCC1C=C(C)CC(C)CC(OC)C2OC(O)(C(=O)C(=O)N3CCCCC3C(=O)OC(C(C)=CC3CCC(O)C(OC)C3)C(C)C(O)CC1=O)C(C)CC2OC (stereo not shown) [Tacrolimus, 17-allyl-1,14-dihydroxy-12-[2-(4-hydroxy-3-methoxycyclohexyl)-1-methylvinyl]-23,25-dimethoxy-13,19,21,27-tetramethyl-11,28-dioxa-4-azatricyclo[22.3.1.0^4,9]octacos-18-ene-2,3,10,16-tetrone, reference compound] | 25.8% | – | – | 7.6% | 11.0 days |

Reference: US7199150B2, “Amino alcohol compounds” (Sankyo Company, Limited, priority 2002, dated 2007)
